Assay results from ChEMBL document CHEMBL1122566, “Resorcinol congeners of dopamine derived from benzocycloheptene and indan” (1984).

Columns and labels:
Felis catus [1] = experiment: Effect on rise in arterial pressure in anesthetized cats at intravenous dose of 100 ug/kg; type: functional, Artery
Felis catus [2] = experiment: Effect on rise in arterial pressure in anesthetized cats at intravenous dose of 300 ug/kg; type: functional, Artery
Felis catus [3] = experiment: Effect on rise in arterial pressure in anesthetized cats at intravenous dose of 30 ug/kg; type: functional, Artery
Felis catus [4] = experiment: Effect on increase in heart rate in anesthetized cats at intravenous dose of 100 ug/kg; type: functional
Felis catus [5] = experiment: Effect on increase in heart rate in anesthetized cats at intravenous dose of 300 ug/kg; type: functional
Felis catus [6] = experiment: Effect on increase in heart rate in anesthetized cats at intravenous dose of 30 ug/kg; type: functional
Felis catus [7] = experiment: Effect on rise in arterial pressure in anesthetized cats at intravenous dose of 1000 ug/kg; type: functional, Artery

Structure (SMILES)	Arterial pressure (Felis catus [1])	Arterial pressure (Felis catus [2])	Arterial pressure (Felis catus [3])	Heart rate (Felis catus [4])	Heart rate (Felis catus [5])	Heart rate (Felis catus [6])	Arterial pressure (Felis catus [7])
NC1CCCc2c(O)cc(O)cc2C1 (centres undefined)	40 mmHg	78.7 mmHg	25.3 mmHg	11.7 beats min-1	42 beats min-1	4.3 beats min-1	–
NC1Cc2cc(O)cc(O)c2C1 (centres undefined)	13.3 mmHg	–	–	0 beats min-1	7.3 beats min-1	–	70.3 mmHg
CCCN(CCC)C1Cc2cc(O)cc(O)c2C1 (centres undefined)	10 mmHg	–	–	0 beats min-1	21.7 beats min-1	–	22.8 mmHg
